Patent US20090022714A1, “Combination methods of inhibiting tumor growth with a vascular endothelial growth factor receptor antagonist” (ImClone Systems, Inc., priority 2001, published 2009)

Target: T1, KDR (VEGFR-2) (Homo sapiens, UniProt P35968)
T1 construct: the cDNA for KDR (VEGFR-2) extracellular domain is fused in-frame with the cDNA for human placental AP; made in house; host or cells: stably transfected NIH 3T3 cells, purified from supernatant on anti-AP antibody
Test: BIAcore analysis of p1C11 scFv, c-p1C11 and VEGF
Format: binding
Method: The binding kinetics of antibodies to KDR (VEGFR-2) were measured using BIAcore biosensor (Pharmacia Biosensor). […] Sensorgrams were obtained at each concentration and were evaluated using a program, BIA Evaluation 2.0, to determine the rate constants kon and koff. Kd was calculated as the ratio of rate constants koff/kon.

T1 sequence (P35968 20-764 limits assumed): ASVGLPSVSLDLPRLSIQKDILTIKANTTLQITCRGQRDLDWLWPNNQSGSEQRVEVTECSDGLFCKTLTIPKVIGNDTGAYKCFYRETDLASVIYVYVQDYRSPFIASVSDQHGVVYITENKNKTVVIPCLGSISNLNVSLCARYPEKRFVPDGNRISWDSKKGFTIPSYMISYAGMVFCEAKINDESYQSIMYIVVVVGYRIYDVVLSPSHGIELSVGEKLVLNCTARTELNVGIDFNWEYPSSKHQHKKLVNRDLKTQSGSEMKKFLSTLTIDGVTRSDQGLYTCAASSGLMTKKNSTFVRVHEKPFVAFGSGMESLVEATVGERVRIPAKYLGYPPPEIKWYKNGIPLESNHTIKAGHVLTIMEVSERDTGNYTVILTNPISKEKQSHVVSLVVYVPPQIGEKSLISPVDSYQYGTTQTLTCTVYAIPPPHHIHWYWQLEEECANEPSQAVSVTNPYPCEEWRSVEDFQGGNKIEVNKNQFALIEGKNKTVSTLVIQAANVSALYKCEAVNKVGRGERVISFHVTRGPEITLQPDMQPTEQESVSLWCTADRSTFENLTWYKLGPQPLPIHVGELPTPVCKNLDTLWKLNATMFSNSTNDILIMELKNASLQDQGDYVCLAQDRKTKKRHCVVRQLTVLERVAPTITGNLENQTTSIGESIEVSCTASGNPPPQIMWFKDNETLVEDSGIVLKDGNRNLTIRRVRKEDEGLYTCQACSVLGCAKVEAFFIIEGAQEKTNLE

In the case of VEGF [reference compound], the koff is reported as 1.81 10^−4 s^−1 and the kon is reported as 1.87 10^5 M^−1s^−1.
